In patent publication US7834023B2 (Portola Pharmaceuticals, Inc., priority 2006, dated 2010):

Tests used:
P2Y12 receptor = biological target: T1, P2Y12 receptor (Homo sapiens, UniProt Q9H244); experiment: platelet ADP receptor binding assay (ARB): inhibition of [3H]2-MeS-ADP binding to platelets; conditions: [3H]2-MeS-ADP binding to apyrase-washed human platelets
T1 construct: endogenous in cells; host or cells: human platelets (outdated from blood banks or fresh), apyrase-washed, whole
Summary of the method: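 Apyrase-washed human platelets (1×10^8 per well) were preincubated 5 min with serial compound dilutions in Hepes-Tyrode's/0.1% BSA/0.6% DMSO, then incubated 15 min at room temperature with 1 nM [3H]2-MeS-ADP. Filter-bound radioactivity gave specific binding (nonspecific: 10 μM 2-MeS-ADP), and IC50s came from non-linear regression.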

[1] = system: human platelet-rich plasma (PRP); experiment: PRP assay: inhibition of ADP-mediated platelet aggregation in vitro; assay type: cell-based; conditions: Homo sapiens, Platelet, ADP-induced aggregation
Description: The effect of testing the compound according to the invention on ADP-induced human platelet aggregation was assessed in a 96-well microtiter assay (see generally the procedures in Jantzen, H. M. et al. (1999) Thromb. Hemost. 81:111-117) or standard cuvette light transmittance aggregometry using either human platelet-rich plasma (PRP) or human washed platelets.
For preparation of human platelet-rich plasma for aggregation assays, human venous blood was collected from healthy, drug-free volunteers into 0.38% sodium citrate (0.013 M, pH 7.0 final). Platelet-rich plasma (PRP) is prepared by centrifugation of whole blood at 160×g for 20 minutes at room temperature. The PRP layer is removed, transferred to a new tube, and the platelet count is adjusted, if necessary, to achieve a platelet concentration of ˜3×10^8 platelets/ml using platelet-poor plasma (PPP). PPP is prepared by centrifugation of the remaining blood sample (after removal of PRP) for 20 minutes at 800×g. This preparation of PRP can subsequently be used for aggregation assays in either a 96-well plate or standard cuvette aggregometry.
For cuvette light transmittance aggregation assays, serial dilutions (1:3) of test compounds were prepared in 100% DMSO in a 96 well V-bottom plate (final DMSO concentration in the cuvette was 0.6%). The test compound (3 μl of serial dilutions in DMSO) was preincubated with PRP for 30-45 seconds prior to initiation of aggregation reactions, which were performed in a ChronoLog aggregometer by addition of agonist (5 or 10 μM ADP) to 490 μL of PRP at 37° C. In some cases, light transmittance aggregometry was performed using 490 μL of washed platelets (prepared as described above) at 37° C., and aggregation was initiated by addition of 5 μM ADP and 0.5 mg/ml human fibrinogen (American Diagnostics, Inc., Greenwich, Conn.). The aggregation reaction is recorded for ˜5 min, and maximum extent of aggregation is determined by the difference in extent of aggregation at baseline, compared to the maximum aggregation that occurs during the five minute period of the assay. Inhibition of aggregation was calculated as the maximum aggregation observed in the presence of inhibitor, compared to that in the absence of inhibitor. IC50s were derived by non-linear regression analysis using the Prism software (GraphPad, San Diego, Calif.).
Inhibition of ADP-dependent aggregation was also determined in 96-well flat-bottom microtiter plates using a microtiter plate shaker and plate reader similar to the procedure described by Frantantoni et al., Am. J. Clin. Pathol. 94, 613 (1990). All steps are performed at room temperature. For 96-well plate aggregation using platelet-rich plasma (PRP), the total reaction volume of 0.2 ml/well includes 180 μl of PRP (˜3×10^8 platelets/ml, see above), 6 μl of either serial dilution of test compounds in 20% DMSO or buffer (for control wells), and 10 μl of 20×ADP agonist solution (100 μM). The OD of the samples is then determined at 450 nm using a microtiter plate reader (Softmax, Molecular Devices, Menlo Park, Calif.) resulting in the 0 minute reading. The plates are then agitated for 5 min on a microtiter plate shaker and the 5 minute reading is obtained in the plate reader. Aggregation is calculated from the decrease of OD at 450 nm at t=5 minutes compared to t=0 minutes and is expressed as % of the decrease in the ADP control samples after correcting for changes in the unaggregated control samples. IC50s were derived by non-linear regression analysis.

T1 sequence (Q9H244 whole entry): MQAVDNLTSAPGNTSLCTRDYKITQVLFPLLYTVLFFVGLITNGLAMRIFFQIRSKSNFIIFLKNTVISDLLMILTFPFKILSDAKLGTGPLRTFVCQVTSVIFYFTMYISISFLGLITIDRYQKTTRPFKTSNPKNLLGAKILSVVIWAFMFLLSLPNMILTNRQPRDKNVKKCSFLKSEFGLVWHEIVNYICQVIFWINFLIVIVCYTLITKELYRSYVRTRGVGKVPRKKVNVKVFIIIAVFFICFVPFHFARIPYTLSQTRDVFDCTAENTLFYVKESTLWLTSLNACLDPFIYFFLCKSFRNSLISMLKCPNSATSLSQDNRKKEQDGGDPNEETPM

| Compound | IC50 (P2Y12 receptor) [nM] | IC50 [1] [nM] |
| --- | --- | --- |
| O=C(NCc1ccc(Cl)s1)c1ccc(-n2c(=O)[nH]c3cc(NCc4ccc(F)cc4)ccc3c2=O)cc1 [Compound 1, N-((5-chlorothiophen-2-yl)methyl)-4-(7-(4-fluorobenzylamino)-2,4-dioxo-1,2-dihydroquinazolin-3(4H)-yl)benzamide] | 50 to 500 | > 30000 |
| CNc1cc2c(cc1F)C(=O)N(c1ccc(C(=O)NC(c3noc(=S)[nH]3)c3ccc(Cl)s3)cc1)CO2 (stereo not drawn) [Compound 75, N-((5-chlorothiophen-2-yl)(5-thioxo-4,5-dihydro-1,2,4-oxadiazol-3-yl)methyl)-4-(6-fluoro-7-(methylamino)-4-oxo-2H-benzo[e][1,3]oxazin-3(4H)-yl)benzamide] | < 50 | 10000 to 30000 |
| CNc1cc2c(cc1F)C(=O)N(c1ccc(C(=O)N(CC(=O)O)Cc3ccc(Cl)s3)cc1)CO2 [Compound 55] | 50 to 500 | > 30000 |
| CNc1cc2[nH]c(=O)n(-c3ccc(C(=O)NC(c4cccc(Cl)c4)c4nnn[nH]4)cc3)c(=O)c2cc1F (stereo not drawn) [Compound 11, N-((3-chlorophenyl)(1H-tetrazol-5-yl)methyl)-4-(6-fluoro-7-(methylamino)-2,4-dioxo-1,2-dihydroquinazolin-3(4H)-yl)benzamide] | 50 to 500 | > 30000 |
| CNc1cc2c(cc1F)C(=O)N(c1ccc(CNC(C(=O)O)c3ccc(Cl)s3)cc1)CO2 (stereo not drawn) [Compound 105, 2-(5-chlorothiophen-2-yl)-2-(4-(6-fluoro-7-(methylamino)-4-oxo-2H-benzo[e][1,3]oxazin-3(4H)-yl)benzylamino)acetic acid] | 50 to 500 | > 30000 |
| CNc1cc2c(cc1F)C(=O)N(c1ccc(C(=O)NC(c3noc(=O)[nH]3)c3ccc(Cl)s3)cc1)CO2 (stereo not drawn) [Compound 71, N-((5-chlorothiophen-2-yl)(5-oxo-4,5-dihydro-1,2,4-oxadiazol-3-yl)methyl)-4-(6-fluoro-7-(methylamino)-4-oxo-2H-benzo[e][1,3]oxazin-3(4H)-yl)benzamide] | < 50 | 10000 to 30000 |
| CNc1cc2[nH]c(=O)n(-c3ccc(C(=O)NC(C(=O)O)c4ccc(C)s4)cc3)c(=O)c2cc1F (stereo not drawn) [Compound 19, 2-(4-(6-fluoro-7-(methylamino)-2,4-dioxo-1,2-dihydroquinazolin-3(4H)-yl)benzamido)-2-(5-methylthiophen-2-yl)acetic acid] | 50 to 500 | < 10000 |
| CNc1cc2c(cc1F)C(=O)N(c1ccc(CNC(CC(=O)O)c3ccc(Cl)s3)cc1)CO2 (stereo not drawn) [Compound 106, 3-(5-chlorothiophen-2-yl)-3-(4-(6-fluoro-7-(methylamino)-4-oxo-2H-benzo[e][1,3]oxazin-3(4H)-yl)benzylamino)propanoic acid] | 50 to 500 | > 30000 |
| CNc1cc2[nH]c(=O)n(-c3ccc(C(=O)NC(c4noc(=O)[nH]4)c4ccc(Cl)s4)cc3)c(=O)c2cc1F (stereo not drawn) [Compound 21, N-((5-chlorothiophen-2-yl)(5-oxo-4,5-dihydro-1,2,4-oxadiazol-3-yl)methyl)-4-(6-fluoro-7-(methylamino)-2,4-dioxo-1,2-dihydroquinazolin-3(4H)-yl)benzamide] | < 50 | < 10000 |
| CNc1cc2[nH]c(=O)n(-c3ccc(C(=O)NC(C(=O)OCCN4CCOCC4)c4ccc(Cl)s4)cc3)c(=O)c2cc1F (stereo not drawn) [Compound 35, 2-morpholinoethyl 2-(5-chlorothiophen-2-yl)-2-(4-(6-fluoro-7-(methylamino)-2,4-dioxo-1,2-dihydroquinazolin-3(4H)-yl)benzamido)acetate] | 50 to 500 | 10000 to 30000 |
| CNc1cc2c(cc1F)C(=O)N(c1ccc(C(=O)NC(C(=O)O)c3ccc(Cl)s3)cc1)CO2 (stereo not drawn) [Compound 56, 2-(5-chlorothiophen-2-yl)-2-(4-(6-fluoro-7-(methylamino)-4-oxo-2H-benzo[e][1,3]oxazin-3(4H)-yl)benzamido)acetic acid] | < 50 | 10000 to 30000 |
| CNc1cc2[nH]c(=O)n(-c3ccc(C(=O)N[C@@H](c4noc(=O)[nH]4)c4ccc(Cl)s4)cc3)c(=O)c2cc1F [Compound 45, (S)-N-((5-chlorothiophen-2-yl)(5-oxo-4,5-dihydro-1,2,4-oxadiazol-3-yl)methyl)-4-(6-fluoro-7-(methylamino)-2,4-dioxo-1,2-dihydroquinazolin-3(4H)-yl)benzamide] | < 50 | < 10000 |
| O=C(NC(C(=O)O)c1cccs1)c1ccc(-n2c(=O)[nH]c3cc(NCc4ccc(F)cc4)ccc3c2=O)cc1 (stereo not drawn) [Compound 2, 2-(4-(7-(4-fluorobenzylamino)-2,4-dioxo-1,2-dihydroquinazolin-3(4H)-yl)benzamido)-2-(thiophen-2-yl)acetic acid] | 50 to 500 | > 30000 |
| CNc1cc2c(cc1F)C(=O)N(c1ccc(C(=O)NC(c3nnn[nH]3)c3ccc(C)s3)cc1)CO2 (stereo not drawn) [Compound 61, 4-(6-fluoro-7-(methylamino)-4-oxo-2H-benzo[e][1,3]oxazin-3(4H)-yl)-N-((5-methylthiophen-2-yl)(1H-tetrazol-5-yl)methyl)benzamide] | < 50 | 10000 to 30000 |
| CNc1cc2[nH]c(=O)n(-c3ccc(C(=O)NC(c4nnn[nH]4)c4ccc(Cl)s4)cc3OC)c(=O)c2cc1F (stereo not drawn) [Compound 52, N-((5-chlorothiophen-2-yl)(1H-tetrazol-5-yl)methyl)-4-(6-fluoro-7-(methylamino)-2,4-dioxo-1,2-dihydroquinazolin-3(4H)-yl)-3-methoxybenzamide] | 50 to 500 |  |
| CNc1cc2c(cc1F)C(=O)N(c1ccc(C(=O)N[C@H](C(=O)O)c3ccccc3)cc1)CO2 [Compound 65, (S)-2-(4-(6-fluoro-7-(methylamino)-4-oxo-2H-benzo[e][1,3]oxazin-3(4H)-yl)benzamido)-2-phenylacetic acid] | 50 to 500 |  |
| O=C(NCc1ccc(Cl)s1)Nc1ccc(-n2c(=O)[nH]c3cc(NCc4ccc(F)cc4)ccc3c2=O)cc1 [Compound 107, 1-((5-chlorothiophen-2-yl)methyl)-3-(4-(7-(4-fluorobenzylamino)-2,4-dioxo-1,2-dihydroquinazolin-3(4H)-yl)phenyl)urea] | < 50 |  |
| CNc1cc2[nH]c(=O)n(-c3ccc(C(=O)NC(c4cccc(OC)c4)c4nnn[nH]4)cc3)c(=O)c2cc1F (stereo not drawn) [Compound 23, 4-(6-fluoro-7-(methylamino)-2,4-dioxo-1,2-dihydroquinazolin-3(4H)-yl)-N-((3-methoxyphenyl)(1H-tetrazol-5-yl)methyl)benzamide] | > 500 |  |
| O=C(NC(C(=O)O)c1ccc(Cl)s1)c1ccc(N2COc3ccccc3C2=O)cc1 (stereo not drawn) [Compound 83, 2-(5-chlorothiophen-2-yl)-2-(4-(4-oxo-2H-benzo[e][31]oxazin-3(4H)-yl)benzamido)acetic acid] | > 500 |  |
| CNc1cc2[nH]c(=O)n(-c3ccc(C(=O)NC(c4ccc(Cl)cc4)c4nnn[nH]4)cc3)c(=O)c2cc1F (stereo not drawn) [Compound 12, N-((4-chlorophenyl)(1H-tetrazol-5-yl)methyl)-4-(6-fluoro-7-(methylamino)-2,4-dioxo-1,2-dihydroquinazolin-3(4H)-yl)benzamide] | > 500 |  |
| NC(=O)c1cn(-c2ccc(C(=O)NC(C(=O)O)c3ccc(Cl)s3)cc2)c(=O)c2ccccc12 (stereo not drawn) [Compound 99] | > 500 |  |
| CNc1cc2c(=O)n(-c3ccc(C(=O)NC(C(=O)O)c4ccc(Cl)s4)cc3)c(=O)[nH]c2cc1F (stereo not drawn) [Compound 48, 2-(5-chlorothiophen-2-yl)-2-(4-(7-fluoro-6-(methylamino)-2,4-dioxo-1,2-dihydroquinazolin-3(4H)-yl)benzamido)acetic acid] | 50 to 500 |  |
